[ ]: non-standard residue; d: D form. pGlu = O=C1CC[C@@H](C(=O)O)N1
What was measured:
[1] = system: ovariectomized (OVX) rats; experiment: Micro-CT of cortical bone from femoral midshafts; type: in vivo, Sprague Dawley rats; conditions: 15 μM (1 mL) intraperitoneal, five times per week for five weeks, vs vehicle, p<0.05 ANCOVA
Experimental: We performed a micro-CT analysis of cortical bone from the femoral midshafts of ovariectomized (OVX) rats treated with 50% DMSO (OVX Vehicle) or 15 μM rat CRP (OVX 15 μM) Sprague Dawley rats (n=12/group) were ovariectomized at 6 months of age and allowed to lose bone for one month prior to treatment. They were then administered vehicle or 15 μM CRP (1 mL), via intraperitoneal injection, five times per week for five weeks. The animals were then sacrificed and their femora were harvested. The femora were scanned using microCT (Scanco uCT40) and 1.8 mm-long mid-diaphyseal regions of interest were analyzed.

[2] = system: immortalized human fetal osteoblast cell line, hFOB 1.19; experiment: Bone matrix formation, Alizarin Red staining, differentiated osteoblasts; type: cell-based; conditions: for calcium deposits (Alizarin dye, fluorescent images): 12.5 μM
Experimental: The effect of CRP on differentiated osteoblasts was analyzed in an immortalized human fetal osteoblast cell line, hFOB 1.19. hFOB cells were incubated for 48 hours in increasing concentrations of CRP (4.6 μM, 9.2 μM, 13.8 μM and 18.4 μM). Bone matrix formation was assayed using a Millipore Osteogenesis Quantitation kit as described above. Phase contrast and fluorescent images of the Alizarin Red stained cells were acquired using an Olympus-IMT microscope according to the manufacturer's (Millipore) specifications. […] Increased bone matrix deposition was also detectable by fluorescence microscopy. Non-amidated CRP had no effect on bone matrix formation.
The sequence specificity of the effect of CRP on bone matrix formation was evaluated using the scrambled peptide, {pGln}NFWQWWIQARKQ (SEQ ID NO:51), which was amidated at the C-terminus. hFOB cells were treated as described above with 18.4 μM of the scrambled peptide, and bone matrix formation was assayed with the Millipore Osteogenesis Quantitation kit as described above.
In cell culture, we also studied the effect of amino acid substitutions in CRP on the formation of bone matrix. hFOB cells were treated with human CRP (KRQWAQFKIQWNQR; SEQ ID NO:42) and, separately, mouse CRP (KRQWTQFKIQWSQR; SEQ ID NO:43) before staining with Alizarin dye to identify the matrix that is formed. Fluorescent images were acquired using an Olympus-IMP microsope.

Substance: rat CRP: rat calcitonin receptor-derived polypeptide (rat homologue, SEQ ID NO:47, shown in FIG. 2) (KRQWAQFKIQWSHRWGRR; listed as Rattus norvegicus)
- average periosteal surface [1]: significantly greater
- average periosteal volume [1]: significantly greater
- average polar moment of inertia [1]: significantly greater
- maximum principal moment of inertia [1]: significantly greater
- minimum principal moment of inertia [1]: significantly greater

Substance: KRQWAQFKIQWNQR (listed as Homo sapiens) [hCRP]
- calcium deposits (Alizarin dye, fluorescent images) [2]: produced calcium deposits

Substance: {pGln}NFWQWWIQARKQ ([pGlu]NFWQWWIQARKQ-NH2; SMILES CC[C@H](C)[C@H](NC(=O)[C@H](Cc1c[nH]c2ccccc12)NC(=O)[C@H](Cc1c[nH]c2ccccc12)NC(=O)[C@H](CCC(N)=O)NC(=O)[C@H](Cc1c[nH]c2ccccc12)NC(=O)[C@H](Cc1ccccc1)NC(=O)[C@H](CC(N)=O)NC(=O)[C@@H]1CCC(=O)N1)C(=O)N[C@@H](CCC(N)=O)C(=O)N[C@@H](C)C(=O)N[C@@H](CCCNC(=N)N)C(=O)N[C@@H](CCCCN)C(=O)N[C@@H](CCC(N)=O)C(N)=O) [scrambled peptide, scrambled control peptide, same amino acids as CRP in scrambled order, reference compound]
- bone matrix formation ([2]; 18.4 μM): did not induce bone matrix formation

Substance: KRQWTQFKIQWSQR (listed as Mus sp.) [mCRP]
- calcium deposits (Alizarin dye, fluorescent images) [2]: produced calcium deposits

— patent US10294290B2, “Polypeptides derived from calcitonin receptors and methods of use” (The Research Foundation For The State University of New York, priority 2010, dated 2019)
